# Data as given in US20190336602A1, “STERILISATION OF S-NITROSOTHIOLS” (Salupont Consulting Ltd., priority 2015, published 2019).
# Like-named read-outs stand apart in the source and are kept apart here.
# Assays:
# [1] = e-beam sterilisation of S-nitrosoglutathione at unconstrained temperature (Example 1), HPLC purity and impurities vs non-irradiated control; assay type: physicochemical; conditions: ~27.5 °C
# Procedure: S-nitrosoglutathione granule samples from a single manufacturing batch, contained in glass vials (up to 250 mg/vial), were stored before sterilisation surrounded by dry ice (solid CO2) at about −80° C. The matching controls were not irradiated but underwent similar conditions of storage and thermal management before, during and after irradiation, as compared with the S-nitrosoglutathione vials that were irradiated. The control purity levels of the S-nitrosoglutathione, and the level of specific impurities glutathione (GSH) and oxidised glutathione (GSSG) content and total impurities content, were analysed. Vials were exposed to either electron beam (e-beam) irradiations or to gamma irradiations. The vials were removed from the dry ice container and sterilised via two radiation dose conditions (15 kGy and 35 kGy) described below under higher temperature conditions (with surrounding air temperature in the range about 18 to 24° C. and with the temperature of the vials free to fluctuate to higher temperature). After irradiation, the vials were immediately surrounded by dry ice at about −80° C. and analysed for post-sterilisation determination of any changes in purity against the control. The e-beam radiation was performed using a moving carrier system set up for delivering a 15 kGy dose and a 35 kGy dose. The 15 kGy radiation dose lasted about 10-15 minutes and the temperature reached approximately equal to 27.5° C. (designated 27.5° C. in the Tables and Figs.). The 35 kGy radiation dose lasted about 30 minutes and the temperature reached approximately equal to 27.5° C. (designated ˜27.5° C. in the Tables and the Figs.). The radiation doses were measured by conventional dosimeters.
# [2] = gamma sterilisation of S-nitrosoglutathione at unconstrained temperature (Example 1), HPLC purity and impurities vs non-irradiated control; assay type: physicochemical
# Procedure: S-nitrosoglutathione granule samples from a single manufacturing batch, contained in glass vials (up to 250 mg/vial), were stored before sterilisation surrounded by dry ice (solid CO2) at about −80° C. The matching controls were not irradiated but underwent similar conditions of storage and thermal management before, during and after irradiation, as compared with the S-nitrosoglutathione vials that were irradiated. The control purity levels of the S-nitrosoglutathione, and the level of specific impurities glutathione (GSH) and oxidised glutathione (GSSG) content and total impurities content, were analysed. Vials were exposed to either electron beam (e-beam) irradiations or to gamma irradiations. The vials were removed from the dry ice container and sterilised via two radiation dose conditions (15 kGy and 35 kGy) described below under higher temperature conditions (with surrounding air temperature in the range about 18 to 24° C. and with the temperature of the vials free to fluctuate to higher temperature). After irradiation, the vials were immediately surrounded by dry ice at about −80° C. and analysed for post-sterilisation determination of any changes in purity against the control. The gamma radiation was performed using a moving carrier system set up for delivering a 15 kGy dose and a 35 kGy dose. The 15 kGy dose radiation lasted about 8-10 hours and the temperature reached up to 40° C. The 35 kGy dose radiation lasted about 18-24 hours, with a temperature reaching up to 60° C. The radiation doses received were measured by conventional dosimeters.
# [3] = e-beam sterilisation of S-nitrosoglutathione at constrained temperatures (Example 2), HPLC purity and impurities vs non-irradiated control; assay type: physicochemical; conditions: few sec.
# Procedure: The experimental protocol for this Example aims to test in a controlled manner the effects on purity of a sterilizing irradiation temperature (a) at about −80° C. and (b) under positive cooling (with surrounding air temperature in the range about 18 to 24° C. and with the temperature of the vials controlled). The same radiation doses as described for Example 1 were applied. For this Example, S-nitrosoglutathione granule samples, from the same single manufacturing batch as in Example 1, contained in amber glass vials (100 mg/vial) were stored before sterilisation at about −80° C. The irradiation process at −80° C. was achieved by the presence of dry ice, which was placed to ensure low temperature of the vials but without influencing the radiation dose delivery characteristics. The matching controls were not irradiated but underwent similar conditions of thermal management before, during and after irradiation, as compared with the S-nitrosoglutathione vials that were irradiated. The e-beam radiation was performed using a moving carrier system. The S-nitrosoglutathione vials were stored at −80° C. freezer and transferred to a dry ice container before irradiation. Before the start of irradiation the S-nitrosoglutathione vials destined for irradiation at ambient temperature (and control vials) were removed from the −80° C. freezer and transferred to a location where the surrounding air temperature is controlled at 18° C. Individual low-temperature containers were used for the vials designated for each target dose and condition of thermal management. A secondary packaging box was placed in the lateral centre at the bottom of the first low-temperature container, with the vials oriented upright. The position of each vial in the configuration was documented. The vials were always irradiated from the same side. […] The arrows marked “e” show the direction of the radiation. For the S-nitrosoglutathione vials requiring cold chain management, dry ice was placed at each lateral short side of the container to ensure a cold chain was maintained during the irradiation process. Each container was placed in an irradiation container. Both the 15 kGy e-beam and 35 kGy radiation doses lasted a few seconds. Following completion of the desired irradiation process, the irradiated S-nitrosoglutathione containing vials and correspondent controls were stored at −80° C. in a freezer for subsequent analysis.
# [4] = gamma sterilisation of S-nitrosoglutathione at constrained temperatures (Example 2), HPLC purity and impurities vs non-irradiated control; assay type: physicochemical
# Procedure: The experimental protocol for this Example aims to test in a controlled manner the effects on purity of a sterilizing irradiation temperature (a) at about −80° C. and (b) under positive cooling (with surrounding air temperature in the range about 18 to 24° C. and with the temperature of the vials controlled). The same radiation doses as described for Example 1 were applied. For this Example, S-nitrosoglutathione granule samples, from the same single manufacturing batch as in Example 1, contained in amber glass vials (100 mg/vial) were stored before sterilisation at about −80° C. The irradiation process at −80° C. was achieved by the presence of dry ice, which was placed to ensure low temperature of the vials but without influencing the radiation dose delivery characteristics. The matching controls were not irradiated but underwent similar conditions of thermal management before, during and after irradiation, as compared with the S-nitrosoglutathione vials that were irradiated. The gamma radiation was performed using gamma radiation emitted from cobalt-60 radioactive sources. The S-nitrosoglutathione vials were stored at −80° C. in a freezer and transferred to a dry ice container before irradiation. Before the start of irradiation, the S-nitrosoglutathione vials destined for irradiation at ambient temperature (and control vials) were removed from the −80° C. freezer and transferred to a location where the surrounding temperature was controlled at 18° C. Individual low-temperature containers were used for the samples designated for each target dose and condition of thermal management, as described above in relation to the e-beam arm of this Example. The secondary packaging was placed in the lateral centre at the bottom of first low-temperature container, with the vials oriented upright. […] The arrows marked “γ” show the direction of the radiation. For the S-nitrosoglutathione product requiring cold chain management, dry ice was placed at each lateral short side of the low-temperature container to ensure a cold chain was maintained during the irradiation process. Each low-temperature container was placed in the lateral centre of an irradiation container. The 15 kGy radiation dose lasted 2 hours and 8 minutes whereas the 35 kGy dose lasted about 5 hours and 8 minutes. When necessary, the dry ice was replenished before execution of the second irradiation. Following completion of the irradiation process, the irradiated S-nitrosoglutathione products were placed in the designated −80° C. freezer. The control samples were moved from the 18° C. controlled location to the designated −80° C. freezer upon completion of the second irradiation. The time of transfer was recorded.
# [5] = cited from earlier work
# [6] = liquid formulation, after at least 8-12 hours at 4 °C to 25 °C (Looker et al., 2008); cited from earlier work
compound,measurement,setting,value
"N[C@@H](CCC(=O)N[C@@H](CSN=O)C(=O)NCC(=O)O)C(=O)O [GSNO, S-nitrosoglutathione]",GSH impurity (% unit change),"[1]; 15 kGy, 10-15 minutes",0.17%
same,GSNO purity (decrease % of control),"[1]; 15 kGy, 10-15 minutes",−0.55%
same,GSSH impurity (% unit change),"[1]; 15 kGy, 10-15 minutes",0.11%
same,Total impurities (% unit changes),"[1]; 15 kGy, 10-15 minutes",0.53%
same,GSH impurity (% unit change),"[1]; 35 kGy, ~30 minutes",0.36%
same,GSNO purity (decrease % of control),"[1]; 35 kGy, ~30 minutes",−1.37%
same,GSSH impurity (% unit change),"[1]; 35 kGy, ~30 minutes",0.32%
same,Total impurities (% unit changes),"[1]; 35 kGy, ~30 minutes",1.26%
same,GSH impurity (% unit change),"[2]; 15 kGy, 8-10 hours, <40 °C",0.34%
same,GSNO purity (decrease % of control),"[2]; 15 kGy, 8-10 hours, <40 °C",−4.47%
same,GSSH impurity (% unit change),"[2]; 15 kGy, 8-10 hours, <40 °C",1.25%
same,Total impurities (% unit changes),"[2]; 15 kGy, 8-10 hours, <40 °C",4.25%
same,GSH impurity (% unit change),"[2]; 35 kGy, 18-24 hours, <60 °C",0.15%
same,GSNO purity (decrease % of control),"[2]; 35 kGy, 18-24 hours, <60 °C",−9.45%
same,GSSH impurity (% unit change),"[2]; 35 kGy, 18-24 hours, <60 °C",6.63%
same,Total impurities (% unit changes),"[2]; 35 kGy, 18-24 hours, <60 °C",9.12%
same,GSH impurity (% unit change),"[3]; 15 kGy, <27.5 °C",0.13%
same,GSNO purity (decrease % of control),"[3]; 15 kGy, <27.5 °C",−0.28%
same,GSSH impurity (% unit change),"[3]; 15 kGy, <27.5 °C",0.13%
same,Total impurities (% unit changes),"[3]; 15 kGy, <27.5 °C",0.27%
same,GSH impurity (% unit change),"[3]; 15 kGy, −80 °C",0.10%
same,GSNO purity (decrease % of control),"[3]; 15 kGy, −80 °C",−0.16%
same,GSSH impurity (% unit change),"[3]; 15 kGy, −80 °C",0.10%
same,Total impurities (% unit changes),"[3]; 15 kGy, −80 °C",0.16%
same,GSH impurity (% unit change),"[3]; 35 kGy, <27.5 °C",0.29%
same,GSNO purity (decrease % of control),"[3]; 35 kGy, <27.5 °C",−1.12%
same,GSSH impurity (% unit change),"[3]; 35 kGy, <27.5 °C",0.23%
same,Total impurities (% unit changes),"[3]; 35 kGy, <27.5 °C",1.08%
same,GSH impurity (% unit change),"[3]; 35 kGy, −80 °C",0.23%
same,GSNO purity (decrease % of control),"[3]; 35 kGy, −80 °C",−0.55%
same,GSSH impurity (% unit change),"[3]; 35 kGy, −80 °C",0.07%
same,Total impurities (% unit changes),"[3]; 35 kGy, −80 °C",0.54%
same,GSH impurity (% unit change),"[4]; 15 kGy, ~2 h, <27.5 °C",0.17%
same,GSNO purity (decrease % of control),"[4]; 15 kGy, ~2 h, <27.5 °C",−0.67%
same,GSSH impurity (% unit change),"[4]; 15 kGy, ~2 h, <27.5 °C",0.14%
same,Total impurities (% unit changes),"[4]; 15 kGy, ~2 h, <27.5 °C",0.63%
same,GSH impurity (% unit change),"[4]; 15 kGy, ~2 h, −80 °C",0.11%
same,GSNO purity (decrease % of control),"[4]; 15 kGy, ~2 h, −80 °C",−0.26%
same,GSSH impurity (% unit change),"[4]; 15 kGy, ~2 h, −80 °C",0.11%
same,Total impurities (% unit changes),"[4]; 15 kGy, ~2 h, −80 °C",0.25%
same,GSH impurity (% unit change),"[4]; 35 kGy, ~5 h, <32.5 °C",0.43%
same,GSNO purity (decrease % of control),"[4]; 35 kGy, ~5 h, <32.5 °C",−2.2%
same,GSSH impurity (% unit change),"[4]; 35 kGy, ~5 h, <32.5 °C",0.36%
same,Total impurities (% unit changes),"[4]; 35 kGy, ~5 h, <32.5 °C",2.11%
same,GSH impurity (% unit change),"[4]; 35 kGy, ~5 h, −80 °C",0.29%
same,GSNO purity (decrease % of control),"[4]; 35 kGy, ~5 h, −80 °C",−1.01%
same,GSSH impurity (% unit change),"[4]; 35 kGy, ~5 h, −80 °C",0.36%
same,Total impurities (% unit changes),"[4]; 35 kGy, ~5 h, −80 °C",0.96%
same,time reported to be stable on storage,"[5]; solid prepared by a specific method, further controlled air, radiation and temperature conditions (Looker et al., 2008; WO 2008/153762)",9 months
same,time reported to be stable on storage,"[5]; solid, inert atmosphere (argon and nitrogen), −20 °C, in the dark (Parent et al., 2013)",6 months
same,initial S-nitrosoglutathione present after storage,[6],about 85%
